Data reported in patent publication US20240239735A1, “ACID ADDITION SALT OF ROCK INHIBITOR, AND CRYSTAL FORM, COMPOSITION AND PHARMACEUTICAL USE THEREOF” (WUHAN LL SCIENCE AND TECHNOLOGY DEVELOPMENT CO., LTD., priority 2021, published 2024).
≈ marks a conversion by molar mass, not a printed value. Where two headings read alike, the source gives them in different places.

What was measured:
[1] = Solid state stability test (HPLC purity, XRPD); type: physicochemical; conditions: for Initial purity (Area %): 0 weeks; for Initial purity (Area %) / Purity (Area %): 265 nm; for Physical and chemical stability: 60° C./sealed and 40° C./75% RH open
Method: (§1) The instrument used for HIPLC analysis was Agilent TIPLC 1260 series.
The samples after being stored 0 days, 1 week, and 2 weeks were taken and each dissolved in a diluent to prepare about 1.0 mg/mL solution, which was tested for chemical stability by HPLC. The solid sample after being stored for 1 week or 2 weeks was tested for physical stability by XRPD.

[2] = Hygroscopicity test by dynamic vapor sorption (DVS); type: physicochemical; conditions: for DVS weight gain (Wt. gain %): 25° C.; for Hygroscopicity: DVS, assessment in words
Method: The sample was subjected to water adsorption/desorption tests using a Vsorp (ProUmid GmbH & Co. KG, Germany) water adsorption analyzer. The sample was placed in a tared sample tray, and the change in the sample mass with humidity (0-90% RH) at 25° C. was recorded.

[3] = Pharmacokinetic study in SD rats, intragastric administration; type: in vivo; conditions: for Cmax: compound A in plasma; for Exposure of compound A relative to administration of the free base: same dose
Method: In the experiment, 12 SD rats (purchased from Beijing Vital River Laboratory Animal Technology Co., Ltd.) weighing 180-280 g, half male and female, were used. The animals were randomly divided into four groups of 3 animals each, with female rats in the first and third groups and male rats in the second and fourth groups.
Blood was collected from the orbital venous plexus of rats at various time points (0.167 h, 0.5 h, 1 h, 2 h, 3 h, 4 h, 6 h, 9 h, 12 h, and 24 h) after administration. The concentration of compound A in the plasma was determined.
Data will be analyzed by a non-compartmental model using WinNonlin (version 5.2.1 Pharsight, Mountain View, CA) to obtain PK parameters (parameters selected for different routes of administration, such as C0, Cmax, Tmax, AUC0-last, AUCinf, T1/2, CL, and Vz).

[4] = Solubility test in biologically relevant media at 37° C. (HPLC, pH, XRPD of filter cake); type: physicochemical
Method: as §1
The suspension was incubated by shaking on a shaker at 100 rpm at 37° C. 1 mL of the dispersion was taken at 0.5 h, 2 h, and 24 h, and filtered. The filtrate was tested for the solubility by HPLC and for the pH value by a pH meter. The filter cake was characterized for the crystal form by XRPD.

[5] = female SD rats, 20 mg/kg in 5% TPGS, 20 mg/kg
[6] = male, SD, rat, plasma, po, 20 mg/kg, male SD rats, 20 mg/kg in 5% TPGS
[7] = SGF medium, 0.5 h, rounded values
[8] = female, SD, rat, plasma, po, 20 mg/kg, female SD rats, 20 mg/kg in 5% TPGS
[9] = male SD rats, 20 mg/kg in 5% TPGS, 20 mg/kg

COc1cccc(CNC(=O)N2CCc3cc(-c4c[nH]nc4N)c(F)cc32)c1 [Fumarate crystal form I]
Initial purity (Area %) ([1]; HPLC method of 7-day test): 99.85 Area % | Initial purity (Area %) ([1]; HPLC method of 14-day test): 99.73 Area % | Purity (Area %) ([1]; 1 week, 40° C./75% RH open): 99.85 Area % | Purity (Area %) ([1]; 1 week, 60° C./sealed): 99.86 Area % | Purity (Area %) ([1]; 2 weeks, 40° C./75% RH open): 99.74 Area % | Purity (Area %) ([1]; 2 weeks, 60° C./sealed): 99.75 Area % | Physical and chemical stability ([1]; one week): physically and chemically stable | Physical and chemical stability ([1]; two weeks): physically and chemically stable | XRPD pattern / crystal form before and after the DVS test [2]: crystal form remained unchanged | DVS weight gain (Wt. gain %) ([2]; 0.0% RH to 80% RH): <0.2% | DVS weight gain (Wt. gain %) ([2]; 0.0% RH to 80% RH, listed as fumarate crystal form I): < 0.2% | DVS weight gain (Wt. gain %) ([2]; 0.0% RH to 90% RH): <0.2% | DVS weight gain (Wt. gain %) ([2]; 0.0% RH to 90% RH, listed as fumarate crystal form I): < 0.2% | Hygroscopicity [2]: non-hygroscopic | AUCinf [3, 5]: 33018 ± 1303 ng·h/mL | AUClast [3, 5]: 32884 ± 1318 ng·h/mL | T1/2 [3, 5]: 3.01 ± 0.22 h | Tmax [3, 5]: 0.83 ± 0.17 h | Cmax [3, 5]: 6357 ± 342 ng/mL | Exposure of compound A relative to administration of the free base ([3]; female rats): 2.23 times | Exposure of compound A relative to administration of the free base ([3]; male rats): 1.22 times | AUC(0-inf) [3, 6]: 24100 ± 2900 ng·h/mL | AUC(0-t) [3, 6]: 23900 ± 2930 ng·h/mL | half-life [3, 6]: 3.44 ± 0.29 h | Cmax ([3]; male, SD, rat, plasma, po, 20 mg/kg, male SD rats, 20 mg/kg in 5% TPGS, read-out: Cmax): 3050 ± 198 ng/mL | Tmax ([3]; male, SD, rat, plasma, po, 20 mg/kg, male SD rats, 20 mg/kg in 5% TPGS, read-out: Tmax): 0.67 ± 0.17 h | Crystal form during the solubility test ([4]; 0.5 h, FaSSIF and FeSSIF media): dissociated into the free base crystal form II | Solubility relative to free base crystal form II ([4]; 0.5 h, all three biologically relevant media): about twice | Solubility ([4]; FaSSIF, 37° C., 0.5 h): 12.19 µg/mL | Solubility ([4]; FaSSIF, 37° C., 2 h): 3.57 µg/mL | Solubility ([4]; FaSSIF, 37° C., 24 h): 4.25 µg/mL | pH of filtrate ([4]; FaSSIF, 24 h (0 h: 6.50)): 5.96 | Solubility ([4]; FeSSIF, 37° C., 0.5 h): 109.2 µg/mL | Solubility ([4]; FeSSIF, 37° C., 2 h): 75.30 µg/mL | Solubility ([4]; FeSSIF, 37° C., 24 h): 61.39 µg/mL | pH of filtrate ([4]; FeSSIF, 24 h (0 h: 5.00)): 4.90 | Solubility [4, 7]: 1900 µg/mL | Solubility ([4]; SGF, 37° C., 0.5 h): 1899 µg/mL | Solubility ([4]; SGF, 37° C., 2 h): 2135 µg/mL | Solubility ([4]; SGF, 37° C., 24 h): 2146 µg/mL | XRPD (crystal form of filter cake) ([4]; SGF, 37° C., 24 h): Trace solid | pH of filtrate ([4]; SGF, 24 h (0 h: 1.20)): 1.29

COc1cccc(CNC(=O)N2CCc3cc(-c4c[nH]nc4N)c(F)cc32)c1 [Oxalate crystal form I]
Initial purity (Area %) ([1]; HPLC method of 7-day test): 96.97 Area % | Purity (Area %) ([1]; 1 week, 40° C./75% RH open): 96.97 Area % | Purity (Area %) ([1]; 1 week, 60° C./sealed): 96.13 Area % | Physical and chemical stability ([1]; one week): degraded | XRPD pattern / crystal form before and after the DVS test [2]: crystal form remained unchanged | DVS weight gain (Wt. gain %) ([2]; 0.0% RH to 80% RH): 2.3% | DVS weight gain (Wt. gain %) ([2]; 0.0% RH to 90% RH): 3.1% | Hygroscopicity [2]: slightly hygroscopic | Solubility ([4]; FaSSIF, 37° C., 0.5 h): 19.34 µg/mL | Solubility ([4]; FaSSIF, 37° C., 2 h): 12.35 µg/mL | Solubility ([4]; FaSSIF, 37° C., 24 h): 13.41 µg/mL | XRPD (crystal form of filter cake) ([4]; FaSSIF, 37° C., 24 h): partially dissociated into the free base crystal form II | pH of filtrate ([4]; FaSSIF, 24 h (0 h: 6.50)): 5.94 | Solubility ([4]; FeSSIF, 37° C., 0.5 h): 96.23 µg/mL | Solubility ([4]; FeSSIF, 37° C., 2 h): 194.1 µg/mL | Solubility ([4]; FeSSIF, 37° C., 24 h): 255.4 µg/mL | XRPD (crystal form of filter cake) ([4]; FeSSIF, 37° C., 24 h): Remains unchanged | XRPD (crystal form of filter cake) ([4]; FeSSIF, 37° C., 24 h, listed as oxalate crystal form I): remained unchanged | pH of filtrate ([4]; FeSSIF, 24 h (0 h: 5.00)): 4.94 | Solubility [4, 7]: 70 µg/mL | Solubility ([4]; SGF, 37° C., 0.5 h): 73.75 µg/mL | Solubility ([4]; SGF, 37° C., 2 h): 123.4 µg/mL | Solubility ([4]; SGF, 37° C., 24 h): 139.9 µg/mL | XRPD (crystal form of filter cake) ([4]; SGF, 37° C., 24 h): Remains unchanged | XRPD (crystal form of filter cake) ([4]; SGF, 37° C., 24 h, listed as oxalate crystal form I): remained unchanged | pH of filtrate ([4]; SGF, 24 h (0 h: 1.20)): 1.24

COc1cccc(CNC(=O)N2CCc3cc(-c4c[nH]nc4N)c(F)cc32)c1 [Free base crystal form II, 5-(3-amino-1H-pyrazol-4-yl)-6-fluoro-N-(3-methoxybenzyl)indoline-1-carboxamide]
Initial purity (Area %) ([1]; HPLC method of 7-day test): 98.62 Area % | Initial purity (Area %) ([1]; HPLC method of 14-day test): 99.83 Area % | Purity (Area %) ([1]; 1 week, 40° C./75% RH open): 98.62 Area % | Purity (Area %) ([1]; 1 week, 60° C./sealed): 98.64 Area % | Purity (Area %) ([1]; 2 weeks, 40° C./75% RH open): 99.83 Area % | Purity (Area %) ([1]; 2 weeks, 60° C./sealed): 99.83 Area % | Physical and chemical stability ([1]; one week): physically and chemically stable | Physical and chemical stability ([1]; two weeks): physically and chemically stable | XRPD pattern / crystal form before and after the DVS test [2]: crystal form remained unchanged | DVS weight gain (Wt. gain %) ([2]; 0.0% RH to 80% RH): 1.3% | DVS weight gain (Wt. gain %) ([2]; 0.0% RH to 90% RH): 1.5% | Hygroscopicity [2]: slightly hygroscopic | AUClast [3, 5]: 14778 ± 3318 ng·h/mL | AUC(0-inf) [3, 8]: 18160 ± 150 ng·h/mL | half-life [3, 8]: 2.88 ± 0.46 h | Cmax ([3]; female, SD, rat, plasma, po, 20 mg/kg, female SD rats, 20 mg/kg in 5% TPGS, read-out: Cmax): 3620 ± 321 ng/mL | Tmax ([3]; female, SD, rat, plasma, po, 20 mg/kg, female SD rats, 20 mg/kg in 5% TPGS, read-out: Tmax): 0.67 ± 0.17 h | AUCinf [3, 9]: 19790 ± 2233 ng·h/mL | AUClast [3, 9]: 19604 ± 2132 ng·h/mL | T1/2 [3, 9]: 3.33 ± 0.40 h | Tmax [3, 9]: 1.00 ± 0.00 h | Cmax [3, 9]: 3297 ± 676 ng/mL | Solubility ([4]; FaSSIF, 37° C., 0.5 h): 8.24 µg/mL (≈ 21.6 µM) | Solubility ([4]; FaSSIF, 37° C., 2 h): 5.14 µg/mL (≈ 13.5 µM) | Solubility ([4]; FaSSIF, 37° C., 24 h): 6.44 µg/mL (≈ 16.9 µM) | XRPD (crystal form of filter cake) ([4]; FaSSIF, 37° C., 24 h): Remains unchanged | XRPD (crystal form of filter cake) ([4]; FaSSIF, 37° C., 24 h, listed as free base crystal form II): remained unchanged | pH of filtrate ([4]; FaSSIF, 24 h (0 h: 6.50)): 6.49 | Solubility ([4]; FeSSIF, 37° C., 0.5 h): 33.38 µg/mL (≈ 87.5 µM) | Solubility ([4]; FeSSIF, 37° C., 2 h): 42.87 µg/mL (≈ 112 µM) | Solubility ([4]; FeSSIF, 37° C., 24 h): 48.68 µg/mL (≈ 128 µM) | XRPD (crystal form of filter cake) ([4]; FeSSIF, 37° C., 24 h): Remains unchanged | XRPD (crystal form of filter cake) ([4]; FeSSIF, 37° C., 24 h, listed as free base crystal form II): remained unchanged | pH of filtrate ([4]; FeSSIF, 24 h (0 h: 5.00)): 4.99 | Solubility [4, 7]: 1000 µg/mL (≈ 2620 µM) | Solubility ([4]; SGF, 37° C., 0.5 h): 1010 µg/mL (≈ 2650 µM) | Solubility ([4]; SGF, 37° C., 2 h): 1027 µg/mL (≈ 2690 µM) | Solubility ([4]; SGF, 37° C., 24 h): 1167 µg/mL (≈ 3060 µM) | XRPD (crystal form of filter cake) ([4]; SGF, 37° C., 24 h): Remains unchanged | XRPD (crystal form of filter cake) ([4]; SGF, 37° C., 24 h, listed as free base crystal form II): remained unchanged | pH of filtrate ([4]; SGF, 24 h (0 h: 1.20)): 1.29
